From ChEMBL document CHEMBL1141295, “Constituents of Ocimum sanctum with antistress activity” (J Nat Prod, 2007)
Active and inactive are the calls of the source.

What was measured:
Assay type in all cases: functional, organism-based
Parameters in all cases: dose 40 mg/kg
Rattus norvegicus [1] = assay: Decrease in acute stress induced adrenal hypertrophy in Sprague-Dawley rat at 40 mg/kg, po
Rattus norvegicus [2] = assay: Increase in acute stress induced adrenal gland weight in Sprague-Dawley rat at 40 mg/kg, po
Rattus norvegicus [3] = assay: Increase in acute stress induced glucose levels in Sprague-Dawley rat at 40 mg/kg, po
Rattus norvegicus [4] = assay: Increase in acute stress induced plasma creatine levels in Sprague-Dawley rat at 40 mg/kg, po
Rattus norvegicus [5] = assay: Increase in acute stress induced plasma corticosterone levels in Sprague-Dawley rat at 40 mg/kg, po

Measured: Activity

C=CCc1ccc(O[C@@H]2O[C@H](CO)[C@@H](O)[C@H](O)[C@H]2O)c(O)c1
active: all assays above

CCCCCCCCCCCCCCCCCCCCCC(=O)O[C@H](COC(=O)CCCCCCCCCCCCCCC)CO[C@H]1O[C@H](CN)[C@@H](O)[C@H](O)[C@H]1O
active: all assays above

CCCCCCCCCCCCCCCCCC(=O)OC[C@H](CO[C@@H]1O[C@H](CO[C@H]2O[C@H](CO)[C@H](O)[C@H](O)[C@H]2O)[C@H](O)[C@H](O)[C@H]1O)OC(=O)CCCCCCCCCCCCC
active: Rattus norvegicus [2] | Rattus norvegicus [4] | Rattus norvegicus [5]
